For orientation: IC50 means the concentration at which inhibition is half-maximal.

This is an account of results in patent US5525600A, “(Thiophen-2-yl)-piperidin or tetrahydropyridin carboxamides” (American Home Products Corporation, priority 1994, dated 1996).

The assay deals with T1, 5-HT1A serotonin receptor (Rattus norvegicus, UniProt P19327).
T1 sequence (P19327 1-422): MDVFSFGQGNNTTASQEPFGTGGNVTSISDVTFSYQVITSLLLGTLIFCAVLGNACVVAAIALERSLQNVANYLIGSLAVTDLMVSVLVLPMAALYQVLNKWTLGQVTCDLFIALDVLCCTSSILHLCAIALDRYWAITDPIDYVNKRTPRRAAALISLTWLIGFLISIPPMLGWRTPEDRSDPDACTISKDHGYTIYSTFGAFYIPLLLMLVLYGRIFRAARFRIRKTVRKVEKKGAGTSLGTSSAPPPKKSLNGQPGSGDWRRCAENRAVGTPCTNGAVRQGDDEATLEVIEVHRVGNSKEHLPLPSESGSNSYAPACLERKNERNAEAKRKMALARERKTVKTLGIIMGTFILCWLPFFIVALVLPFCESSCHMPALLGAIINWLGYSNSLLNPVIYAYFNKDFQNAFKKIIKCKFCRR
The experiment in a line: biochemical. Format: binding.

[1] abbreviates: displacement of [^3 H]8-OHDPAT, read-out: 5-HT1A Binding (IC50).

Structures can show the parent of a compound that is named as a salt. Where two headings read alike, the source gives them in different places.

Compound `COc1ccsc1C1(O)CCN(CCC(C(=O)N2CCCCCC2)c2ccccc2)CC1` (stereo not drawn) [Example 1, 1-Azepan-1-yl-4-[4-hydroxy-4-(3-methoxy-thiophen-2-yl)-piperidin-1-yl]-2-phenyl-butan-1-one 0.75 hydroiodide] registered a concentration for half-maximal inhibition (IC50) of 0.8 nM. Same read-out and setting: under `COc1ccsc1C1=CCN(CCC(C(=O)N2CCCCCC2)c2ccccc2)CC1` (stereo not drawn) [Example 2, 1-Azepan-1-yl-4-[4-(3-methoxy-thiophen-2-yl)-1,2,3,6-tetrahydro-pyridin-1-yl]-2-phenyl-butan-1-one] stands 0.25 nM. On to `COc1ccsc1C1CCN(CCC(C(=O)N2CCCCCC2)c2ccccc2)CC1` (stereo not drawn) [Example 3, 1-Azepan-1-yl-4-[4-(3-methoxy-thiophen-2-yl)-piperidin-1-yl]-2-phenyl-butan-1-one fumarate salt], for which the half-maximal inhibitory concentration (IC50) under setting [1] came to 0.98 nM. Compound `COc1ccsc1C1=CCN(CC[C@H](C(=O)N2CCCCCC2)c2ccccc2)CC1` [Example 4, (S)-1-Azepan-1-yl-4-[4-(3-methoxy-thiophen-2-yl)-1.2.3.6-tetrahydro-pyridin-1-yl]-2-phenyl-butan-1-one hydrochloride salt] had an IC50 of 0.2 nM.

Consider `COc1ccsc1C1CCN(CC[C@H](C(=O)N2CCCCCC2)c2ccccc2)CC1` [Example 5, (2S)-1-(Azepan-1-yl)-4-[4-(3-methoxy-thiophen-2-yl)-piperidin-1-yl]-2-phenyl-butan-1-one dihydrochloride salt], for which the IC50 under setting [1] was 0.7 nM. With `O=C1CC2(CCCC2)CC(=O)N1CCCCN1CCN(c2ncccn2)CC1` [buspirone, reference compound], where the note is “displacement of [^3 H]8-OHDPAT”, the “affinity for the serotonin 5-HT1A receptor (in words)” value was “potent affinity”.
